Data on 43 molecules can be found in patent US11279681B2, “3-alkyl bicyclic [4,5,0] hydroxamic acids as HDAC inhibitors” (Valo Health, Inc., priority 2015, dated 2022).

The structures appear in SMILES notation.

For this assay, the target named is T1, HDAC6 (Homo sapiens, UniProt Q9UBN7).
T1 sequence (Q9UBN7 1-1215): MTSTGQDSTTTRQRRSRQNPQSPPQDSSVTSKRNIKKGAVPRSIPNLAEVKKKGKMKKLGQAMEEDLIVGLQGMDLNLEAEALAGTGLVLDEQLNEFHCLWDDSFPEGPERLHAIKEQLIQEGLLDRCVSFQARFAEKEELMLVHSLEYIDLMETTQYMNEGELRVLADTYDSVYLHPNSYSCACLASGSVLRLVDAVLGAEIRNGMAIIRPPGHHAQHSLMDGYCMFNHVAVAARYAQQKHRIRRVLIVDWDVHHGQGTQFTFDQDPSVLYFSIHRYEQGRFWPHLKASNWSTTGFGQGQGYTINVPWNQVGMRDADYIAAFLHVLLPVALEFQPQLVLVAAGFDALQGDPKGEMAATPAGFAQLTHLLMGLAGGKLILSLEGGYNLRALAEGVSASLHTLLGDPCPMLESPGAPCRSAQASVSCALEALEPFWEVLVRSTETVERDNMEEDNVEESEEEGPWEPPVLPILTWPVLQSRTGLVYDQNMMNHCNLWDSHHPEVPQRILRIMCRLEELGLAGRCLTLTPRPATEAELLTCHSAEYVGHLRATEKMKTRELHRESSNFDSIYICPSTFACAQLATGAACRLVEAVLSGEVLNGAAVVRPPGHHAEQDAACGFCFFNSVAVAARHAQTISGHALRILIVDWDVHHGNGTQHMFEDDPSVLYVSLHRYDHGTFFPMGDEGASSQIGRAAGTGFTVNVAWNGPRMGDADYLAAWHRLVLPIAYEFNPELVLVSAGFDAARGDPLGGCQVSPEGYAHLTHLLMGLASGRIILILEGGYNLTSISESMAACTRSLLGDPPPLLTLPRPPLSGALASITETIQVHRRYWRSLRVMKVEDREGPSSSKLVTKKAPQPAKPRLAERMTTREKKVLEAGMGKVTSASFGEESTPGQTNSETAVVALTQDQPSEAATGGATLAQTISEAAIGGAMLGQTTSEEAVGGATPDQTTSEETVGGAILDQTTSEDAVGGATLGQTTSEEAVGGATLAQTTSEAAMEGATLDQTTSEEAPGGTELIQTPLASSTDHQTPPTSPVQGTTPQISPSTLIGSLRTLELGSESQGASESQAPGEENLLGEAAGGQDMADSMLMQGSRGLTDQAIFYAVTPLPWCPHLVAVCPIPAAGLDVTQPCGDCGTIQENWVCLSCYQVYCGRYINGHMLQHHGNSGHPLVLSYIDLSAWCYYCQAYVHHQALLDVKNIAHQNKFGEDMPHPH
Briefly: In vitro histone deacetylase assay: enzymatic HDAC6 electrophoretic mobility shift assay. It is filed as biochemical. The conditions noted are these: full length human recombinant HDAC6, 1 nM enzyme, 2 μM peptide substrate RHKK(Ac)-NH2, 25° C.; read-out: Inhibitory Concentration (IC50) Values for Representative Compounds against HDAC6, Activity Range. The method, then:
The enzymatic HDAC6 assay was performed using electrophoretic mobility shift assay. […] The enzymatic reactions were assembled in 384 well plates in a total volume of 25 μL in a reaction buffer composing: 100 mM HEPES, pH7.5, 25 mM KCl, 0.1% bovine serum albumin, 0.01% Triton X-100, 1% DMSO (from compounds) 2 μM of the fluorescently labeled peptide substrate and enzyme. The enzyme was added at a final concentration of 1 nM. The peptide substrate RHKK(Ac)-NH2 was used. The compounds were tested at 12 concentrations spaced by 3× dilution intervals. Negative control samples (0%-inhibition in the absence of inhibitor) and positive control samples (100%-inhibition) were assembled in replicates of four in each assay plate. The reactions were incubated at 25° C. and quenched by the addition of 45 μL of termination buffer (100 mM HEPES, pH 7.5, 0.01% Triton X-100, 0.05% SDS).
The terminated assay plates were analyzed on LabChip® 3000 microfluidic electrophoresis instrument (Perkin Elmer/Caliper Life Sciences). The fluorescence intensity of the electrophoretically separated de-acetylated product and substrate peptide was measured. Activity in each sample was determined as the product to sum ratio (PSR): P/(S+P), where P is the peak height of the product peptide and S is the peak height of the substrate peptide. Percent inhibition (Pinh) is determined using the following equation:
Pinh=(PSR0%−PSRinh)/(PSR0%−PSR100%)*100, where PSRinh is the product sum ratio in the presence of inhibitor, PSR0% is the average product sum ration in the absence of inhibitor and PSR100% is the average product sum ratio in 100%-inhibition control samples. The IC50 values of inhibitors were determined by fitting the %-inhibition curves with 4 parameter dose-response model using XLfit 4 software.

Turning to `COCCN1Cc2ccc(C(=O)NO)cc2OC[C@@H]1C` [(S)-N-hydroxy-4-(2-methoxyethyl)-3-methyl-2,3,4,5-tetrahydrobenzo[f][1,4]oxazepine-8-carboxamide], the IC50 is not above 100 nM.
The value for `CC(C)[C@H]1COc2cc(C(=O)NO)ccc2CN1` was not above 100 nM; that for `O=C1CN(Cc2ccn3ccnc3c2)Cc2cc(C(=O)NO)ccc2N1` was 100 to 500 nM.
`COCCn1c(CN2CCOc3ccc(C(=O)NO)cc3C2)nc2ccccc21`: the IC50 is more than 500 nM.
With `COc1ccc(NC(=O)N2Cc3ccc(C(=O)NO)cc3O[C@@H](C)C2)cc1` the figure was not above 100 nM; with `CN(C(=O)N1CCOc2cc(C(=O)NO)ccc2C1)c1ccccc1`, more than 500 nM.
With `O=C(NO)c1ccc2c(c1)OCCN(C(=O)OC1CCCCC1)C2` the figure was not above 100 nM; with `COc1ccc(NC(=O)N2CCOc3cc(C(=O)NO)cnc3C2)cc1`, not above 100 nM; with `C[C@H]1COc2cc(C(=O)NO)ccc2CN1C(=O)N(C)c1ccccc1` [(S)-N8-hydroxy-N4,3-dimethyl-N4-phenyl-2,3-dihydrobenzo[f][1,4]oxazepine-4,8(5H)-dicarboxamide], 100 to 500 nM.
`C[C@H]1COc2cc(C(=O)NO)ccc2CN1C(=O)N1CCC1` [(S)-4-(azetidine-1-carbonyl)-N-hydroxy-3-methyl-2,3,4,5-tetrahydrobenzo[f][1,4]oxazepine-8-carboxamide]: the IC50 was not above 100 nM.
With `O=C(NO)c1ccc2c(c1)OCCN(c1ccc(Cl)c(Cl)c1)C2` the figure was 100 to 500 nM; with `COc1ccc(CN2CCOc3cc(C(=O)NO)ccc3C2)cn1`, 100 to 500 nM; with `O=C(NO)c1ccc2c(c1)CN(Cc1nc3ccccc3[nH]1)CCO2`, more than 500 nM.
The value for `CCN1Cc2ccc(C(=O)NO)cc2OC[C@@H]1C` [(S)-4-ethyl-N-hydroxy-3-methyl-2,3,4,5-tetrahydrobenzo[f][1,4]oxazepine-8-carboxamide] was 100 to 500 nM.
On to `COc1ccc(S(=O)(=O)N2CC(=O)Nc3ccc(C(=O)NO)cc3C2)cc1`, for which the IC50 is more than 500 nM.
With `C[C@H]1COc2cc(C(=O)NO)ccc2CN1c1ccc(C(F)(F)F)cc1` [(S)-N-hydroxy-3-methyl-4-(4-(trifluoromethyl)phenyl)-2,3,4,5-tetrahydrobenzo[f][1,4]oxazepine-8-carboxamide] the figure was 100 to 500 nM.
As for `COc1ccc(NC(=O)N2Cc3ccc(C(=O)NO)cc3O[C@H](C)C2)cc1`, the IC50 was in the range of 100 to 500 nM.
In the case of `C[C@H]1COc2cc(C(=O)NO)ccc2CN1C(=O)Nc1ccccn1` [(S)-N8-hydroxy-3-methyl-N4-(pyridin-2-yl)-2,3-dihydrobenzo[f][1,4]oxazepine-4,8(5H)-dicarboxamide], the IC50 is not above 100 nM.
With `COc1ccc(S(=O)(=O)N2Cc3ccc(C(=O)NO)cc3O[C@H](C)C2)cc1` the figure was 100 to 500 nM; with `C[C@H]1COc2cc(C(=O)NO)ccc2CN1C` [(S)—N-hydroxy-3,4-dimethyl-2,3,4,5-tetrahydrobenzo[f][1,4]oxazepine-8-carboxamide], 100 to 500 nM; with `COC[C@H]1COc2cc(C(=O)NO)ccc2CN1c1ccccc1` [(S)-N-hydroxy-3-(methoxymethyl)-4-phenyl-2,3,4,5-tetrahydrobenzo[f][1,4]oxazepine-8-carboxamide], not above 100 nM.
The value for `COC1CCN(C(=O)N2Cc3ccc(C(=O)NO)cc3OC[C@@H]2C)C1` (stereo partly drawn) [(3S)-N-hydroxy-4-(3-methoxypyrrolidine-1-carbonyl)-3-methyl-2,3,4,5-tetrahydrobenzo[f][1,4]oxazepine-8-carboxamide] was not above 100 nM; that for `O=C1CN(Cc2cccc3c2OC(F)(F)O3)Cc2cc(C(=O)NO)ccc2N1` was not above 100 nM.
The value for `COc1ccc(CN2Cc3ccc(C(=O)NO)cc3O[C@@H](C)C2)cc1` was 100 to 500 nM; that for `C[C@H]1COc2cc(C(=O)NO)ccc2CN1C1CCCC1` [(S)-4-cyclopentyl-N-hydroxy-3-methyl-2,3,4,5-tetrahydrobenzo[f][1,4]oxazepine-8-carboxamide] was 100 to 500 nM; that for `COc1ccc(CN2CCOc3ccc(C(=O)NO)cc3C2)nc1` was more than 500 nM.
Take `COC[C@H]1COc2cc(C(=O)NO)ccc2CN1C` [(S)-N-hydroxy-3-(methoxymethyl)-4-methyl-2,3,4,5-tetrahydrobenzo[f][1,4]oxazepine-8-carboxamide]: the IC50 is not above 100 nM.
As for `COc1ccc(CN2CCOc3ccc(C(=O)NO)cc3C2=O)cc1`, the IC50 was more than 500 nM.
With `O=C(NO)c1ccc2c(c1)OCCN(C1CCCCC1)C2` [4-cyclohexyl-N-hydroxy-2,3,4,5-tetrahydrobenzo[f][1,4]oxazepine-8-carboxamide] the figure was more than 500 nM; with `O=C(NO)c1ccc2c(c1)OCCN(Cc1nc3ccccc3[nH]1)C2`, not above 100 nM; with `C[C@H]1COc2cc(C(=O)NO)ccc2CN1C(=O)OC1CCOCC1` [tetrahydro-2H-pyran-4-yl(S)-8-(hydroxycarbamoyl)-3-methyl-2,3-dihydrobenzo[f][1,4]oxazepine-4(5H)-carboxylate], not above 100 nM.
The value for `O=C(NO)c1ccc2c(c1)CN(c1nc3ccccc3[nH]1)CCO2` was 100 to 500 nM; that for `COc1ccc(CN2CC(=O)Nc3ccc(C(=O)NO)cc3C2)c(F)c1` was not above 100 nM; that for `O=C1CN(Cc2ccncc2)Cc2cc(C(=O)NO)ccc2N1` was 100 to 500 nM.
With `O=C(NO)c1ccc2c(c1)OCCN(C(=O)N1CCCCC1)C2`, the IC50 is not above 100 nM.
With `COCCS(=O)(=O)N1Cc2ccc(C(=O)NO)cc2OC[C@@H]1C` [(S)-N-hydroxy-4-((2-methoxyethyl)sulfonyl)-3-methyl-2,3,4,5-tetrahydrobenzo[f][1,4]oxazepine-8-carboxamide] the figure was 100 to 500 nM; with `C[C@H]1COc2cc(C(=O)NO)ccc2CN1c1ccccc1F` [(S)-4-(2-fluorophenyl)-N-hydroxy-3-methyl-2,3,4,5-tetrahydrobenzo[f][1,4]oxazepine-8-carboxamide], not above 100 nM.
`C[C@H]1COc2cc(C(=O)NO)ccc2CN1c1ccc(F)cc1` [(S)-4-(4-fluorophenyl)-N-hydroxy-3-methyl-2,3,4,5-tetrahydrobenzo[f][1,4]oxazepine-8-carboxamide]: the IC50 is not above 100 nM.
Take `O=C1CN(c2ccccc2)Cc2cc(C(=O)NO)ccc2N1` [N-hydroxy-2-oxo-4-phenyl-2,3,4,5-tetrahydro-1H-benzo[e][1,4]diazepine-7-carboxamide]: the IC50 is more than 500 nM.
With `COc1ccc(CN2CCOc3ccc(C(=O)NO)cc3C2C)cc1` (stereo not shown) the figure was more than 500 nM.
With `CCS(=O)(=O)N1Cc2ccc(C(=O)NO)cc2OC[C@@H]1C` [(S)-4-(ethylsulfonyl)-N-hydroxy-3-methyl-2,3,4,5-tetrahydrobenzo[f][1,4]oxazepine-8-carboxamide] the figure was not above 100 nM; with `COc1ccc(CN2CCOc3cc(C(=O)NO)cnc3C2)cc1`, 100 to 500 nM.
The value for `C[C@H]1COc2cc(C(=O)NO)ccc2CN1C(=O)NC1CCOCC1` [(S)-N8-hydroxy-3-methyl-N4-(tetrahydro-2H-pyran-4-yl)-2,3-dihydrobenzo[f][1,4]oxazepine-4,8(5H)-dicarboxamide] was not above 100 nM.
